In ChEMBL document CHEMBL1201862, “PubChem BioAssay data set” (2004):
Activity calls are given as the source filed them.

What was measured:
[1] = viability loss in HEK293 cells – cell-based, plate reader, cherry-picked samples, cytotoxicity control, dose response (AID 743446); format: functional
[2] = blockade of melanocortin 4 receptor signaling – cell-based, plate reader, cherry pick, counter-screen for LGR2 antagonist project, dose response (AID 743444); format: functional;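 note: transfected HEK 293 cells stimulated with alpha-MSH peptide; potency of inhibitors of the alpha-MSH evoked signal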
[3] = target: Luciferin 4-monooxygenase (Photuris pensylvanica, UniProt Q27757); test: inhibition of Cell Titer Glo luciferase signal – biochemical, luminescence, cherry-picks, counter-screen for HSF-1 reporter inhibitor project, dose response (AID 588847)
Chain of Luciferin 4-monooxygenase (Q27757 whole entry): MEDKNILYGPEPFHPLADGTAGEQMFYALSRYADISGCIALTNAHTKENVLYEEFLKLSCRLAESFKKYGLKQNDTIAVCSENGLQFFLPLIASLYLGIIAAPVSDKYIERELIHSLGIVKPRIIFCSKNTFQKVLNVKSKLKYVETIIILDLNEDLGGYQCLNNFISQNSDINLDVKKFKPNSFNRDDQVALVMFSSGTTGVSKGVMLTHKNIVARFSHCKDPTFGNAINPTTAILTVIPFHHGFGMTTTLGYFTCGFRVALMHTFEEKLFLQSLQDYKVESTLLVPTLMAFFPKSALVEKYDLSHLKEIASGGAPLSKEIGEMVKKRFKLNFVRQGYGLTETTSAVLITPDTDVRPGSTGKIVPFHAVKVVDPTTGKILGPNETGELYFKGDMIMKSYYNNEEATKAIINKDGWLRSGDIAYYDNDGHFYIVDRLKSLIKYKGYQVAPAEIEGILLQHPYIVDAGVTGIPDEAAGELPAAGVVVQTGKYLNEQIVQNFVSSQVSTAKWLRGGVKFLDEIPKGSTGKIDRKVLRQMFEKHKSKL

[4] = A549 cell cytotoxicity, dose response, cytotoxicity control, plate reader, cherry-pick, antagonist series (AID 743412); format: functional, cell-based
[5] = target: T1, Heat shock factor protein 1 (Mus musculus, UniProt P38532); test: decrease of HSF1-responsive luciferase luminescence – cell-based, NIH3T3, dose retest, confirmation (AID 2382); format: functional;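 note: NIH3T3 fibroblasts with HSF1-driven luciferase reporter stressed by proteasome inhibitor MG132; luminescence from HSF1-driven luciferase expression after 8 hours of MG132 stress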
T1 sequence (P38532 whole entry): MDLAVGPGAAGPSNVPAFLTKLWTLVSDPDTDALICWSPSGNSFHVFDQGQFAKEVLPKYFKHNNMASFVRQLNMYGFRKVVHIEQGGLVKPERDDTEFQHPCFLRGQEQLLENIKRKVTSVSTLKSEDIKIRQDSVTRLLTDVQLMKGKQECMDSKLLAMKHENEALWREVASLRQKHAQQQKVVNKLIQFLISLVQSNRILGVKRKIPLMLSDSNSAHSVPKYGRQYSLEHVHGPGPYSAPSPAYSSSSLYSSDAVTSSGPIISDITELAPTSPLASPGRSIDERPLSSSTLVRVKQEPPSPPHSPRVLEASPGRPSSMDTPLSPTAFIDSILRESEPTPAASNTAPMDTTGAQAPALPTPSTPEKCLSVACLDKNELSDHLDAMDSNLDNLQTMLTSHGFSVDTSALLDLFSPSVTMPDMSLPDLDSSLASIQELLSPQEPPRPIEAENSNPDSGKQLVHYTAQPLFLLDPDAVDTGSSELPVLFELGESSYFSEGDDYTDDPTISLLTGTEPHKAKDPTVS

[6] = HEK-293T viability loss after treatment – luminescence, T-cell screen hits, cytotoxicity control for TCR NF-kB inhibitor project, dose response (AID 489026); format: functional, cell-based;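 note: cells exposed to compound about 14 hours before the viability readout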
[7] = blockers of bursicon-stimulated LGR2 cAMP reporter – cell-based, HEK293, CRE-luciferase reporter, cherry pick, set 2, dose response (AID 743343); format: functional;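 note: transfected cells were stimulated with diluted bursicon conditioned medium after compound addition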
HeLa = test: ATP-based viability loss in HeLa cells – cell-based, CellTiter-Glo luminescence, cherry-pick samples, cytotoxicity control for MITF activator project, dose response (AID 540259); format: functional; conditions: Homo sapiens
[8] = fluconazole-exposed Candida albicans growth modulators – fluorescence, retest, confirmation (AID 2467); format: functional, cell-based
H4 = test: Luminescence Cell-Based Dose Response HTS to Identify Activators of 5'UTR Stem-Loop Driven Prion Protein mRNA Translation in H4 Neuroglioblastoma Cells. [Related pubchem assays: 1829 (Project Summary), 1814 (Primary HTS)]; format: functional; conditions: Homo sapiens
[9] = NIH-3T3 fibroblast cytotoxicity, dose response, cytotoxicity control, cell-based, fluorescence, Alamar Blue, secondary assay (AID 2327); format: functional;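 note: NIH-3T3 mouse fibroblasts cultured with fluconazole at 8 µg/mL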
CHO = CHO cell viability loss, potency – luminescence, cytotoxicity control for TLR9-MyD88 binding inhibitor project, dose response (AID 588339); format: functional, cell-based, hamster; conditions: Cricetulus griseus;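 note: CHO cells stably coexpressing TLR9 and MyD88 fusions from primary screen; compound exposure lasted 48 hours before viability readout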
[10] = target: E3 ubiquitin-protein ligase Mdm2 (Homo sapiens, UniProt Q00987); test: MDM2-luc reporter signal enhancers, multi-concentration potency testing, MDM2 ubiquitin-protein ligase inhibitor program, whole-cell format, luminescence detection, 384-well microplate (AID 1394); format: functional;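 note: MDM2 E3 inhibitors raise luminescence so EC50 is for signal enhancement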
Chain of E3 ubiquitin-protein ligase Mdm2 (Q00987 whole entry): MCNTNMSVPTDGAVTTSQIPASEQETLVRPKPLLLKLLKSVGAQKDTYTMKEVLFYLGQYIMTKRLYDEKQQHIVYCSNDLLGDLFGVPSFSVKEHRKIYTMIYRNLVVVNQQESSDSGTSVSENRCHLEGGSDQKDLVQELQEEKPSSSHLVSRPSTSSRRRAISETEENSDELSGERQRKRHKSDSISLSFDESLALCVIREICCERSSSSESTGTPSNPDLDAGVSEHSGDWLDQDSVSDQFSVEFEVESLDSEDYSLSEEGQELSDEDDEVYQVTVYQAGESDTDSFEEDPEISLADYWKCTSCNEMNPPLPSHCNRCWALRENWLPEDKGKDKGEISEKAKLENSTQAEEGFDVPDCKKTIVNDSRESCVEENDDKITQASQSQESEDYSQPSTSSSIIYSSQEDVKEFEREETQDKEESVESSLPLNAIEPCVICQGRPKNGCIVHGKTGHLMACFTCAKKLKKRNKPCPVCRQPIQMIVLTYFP

INS1 = test: INS-1E survival protection against cytokine death – cell-based, luminescence, retest, dose response (AID 449756); format: functional; conditions: Rattus norvegicus;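 note: cell death triggered by IL-1 beta plus TNF-alpha plus IFN-gamma mixture; protective hits raise ATP signal compared with cytokine alone wells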
[11] = Luminescence Cell-Based Dose Confirmation HTS to Identify Activators of 5'UTR Stem-Loop Driven Alpha-Synuclein mRNA Translation in H4 Neuroglioblastoma Cells. [Related pubchem assays: 1829 (Project Summary), 1814 (Primary HTS)]; format: functional
[12] = microbe, parasite or virus in culture; format: functional; conditions: Mycobacterium tuberculosis
[13] = Luminescence Cell-Based Dose Response HTS to Identify Activators of Luciferase Translation or Activity in H4 […] Cells. [Related pubchem assays: 1829 (Project Summary), 1814 (Primary HTS)]; format: functional
[14] = target: ATP-dependent molecular chaperone HSP82 (Candida albicans (strain WO-1) (Yeast), UniProt C4YTQ8); test: steroid-induced GRE reporter decrease in yeast – S. cerevisiae, luminescence, Hsp90 inhibitor project, dose response (AID 2400); format: functional, cell-based;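 note: beta-galactosidase luminescence from glucocorticoid response element reporter as proxy for Hsp90 function; inhibitor potency where signal loss means Hsp90 inhibition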
Chain of ATP-dependent molecular chaperone HSP82 (C4YTQ8 whole entry): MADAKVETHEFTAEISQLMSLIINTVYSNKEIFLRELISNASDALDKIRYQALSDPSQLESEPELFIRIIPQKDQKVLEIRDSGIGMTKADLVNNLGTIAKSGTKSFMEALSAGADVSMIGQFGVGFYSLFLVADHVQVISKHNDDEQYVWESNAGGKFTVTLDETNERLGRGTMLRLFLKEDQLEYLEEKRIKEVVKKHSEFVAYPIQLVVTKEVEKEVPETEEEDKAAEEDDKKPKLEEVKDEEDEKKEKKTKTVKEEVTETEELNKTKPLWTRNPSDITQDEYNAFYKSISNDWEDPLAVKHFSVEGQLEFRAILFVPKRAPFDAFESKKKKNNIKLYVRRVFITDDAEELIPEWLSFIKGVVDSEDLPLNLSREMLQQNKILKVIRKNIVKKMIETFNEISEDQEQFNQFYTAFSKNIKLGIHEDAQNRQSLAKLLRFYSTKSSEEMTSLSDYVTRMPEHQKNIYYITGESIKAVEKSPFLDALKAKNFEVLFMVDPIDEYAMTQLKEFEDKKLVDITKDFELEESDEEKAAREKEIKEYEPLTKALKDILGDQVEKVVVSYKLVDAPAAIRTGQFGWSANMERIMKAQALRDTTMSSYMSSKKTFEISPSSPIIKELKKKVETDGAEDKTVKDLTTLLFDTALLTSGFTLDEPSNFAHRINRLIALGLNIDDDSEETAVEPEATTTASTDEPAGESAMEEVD

[15] = target: Serine/threonine-protein phosphatase (Candida dubliniensis (strain CD36 / CBS 7987 / NCPF 3949 / NRRLY-17841) (Yeast), UniProt B9W6M3); test: blockers of CaCl2-induced CDRE-lacZ signaling – S. cerevisiae, luminescence, secondary, dose response (AID 2388); format: functional, cell-based;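 note: yeast reporter cells carrying a calcineurin-responsive lacZ construct stimulated with calcium chloride; luminescent beta-galactosidase reporter signal in whole cells rather than isolated phosphatase activity; potency for inhibition where a drop in reporter signal means calcineurin blockade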
Chain of Serine/threonine-protein phosphatase (B9W6M3 whole entry): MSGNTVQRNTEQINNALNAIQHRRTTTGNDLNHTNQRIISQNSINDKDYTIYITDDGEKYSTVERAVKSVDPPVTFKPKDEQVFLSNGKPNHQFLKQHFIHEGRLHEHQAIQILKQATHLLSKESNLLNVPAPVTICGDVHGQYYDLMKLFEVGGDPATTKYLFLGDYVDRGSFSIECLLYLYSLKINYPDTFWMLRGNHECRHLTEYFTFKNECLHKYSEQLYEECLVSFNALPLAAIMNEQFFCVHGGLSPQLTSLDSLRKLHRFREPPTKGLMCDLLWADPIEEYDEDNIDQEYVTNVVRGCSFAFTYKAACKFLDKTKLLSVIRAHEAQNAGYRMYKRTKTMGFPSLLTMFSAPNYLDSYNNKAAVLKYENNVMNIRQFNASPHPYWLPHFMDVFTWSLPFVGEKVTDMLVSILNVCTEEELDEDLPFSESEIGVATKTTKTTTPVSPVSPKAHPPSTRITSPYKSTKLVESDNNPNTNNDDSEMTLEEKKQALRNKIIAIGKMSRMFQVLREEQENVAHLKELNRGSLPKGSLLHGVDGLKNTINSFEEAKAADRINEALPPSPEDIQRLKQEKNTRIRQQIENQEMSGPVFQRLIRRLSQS

[16] = target: T1, Heat shock factor protein 1; test: enhancement of HSF1-driven luciferase signal – cell-based, NIH3T3, luminescence, dose retest, confirmation (AID 435004); format: functional;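 note: stress induced by proteasome inhibitor MG132 added 30 min after compound; luciferase reporter driven by HSF1 response element in NIH3T3 cells; actives raise luminescence as potentiators of the MG132 stress response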
Candida albicans [17] = test: resistant Candida growth with fluconazole co-treatment – CaCi-8 strain, Alamar Blue, dry powder, set 2, dose response (AID 488909); format: functional, organism-based
Candida albicans [18] = test: C. albicans growth inhibition with fluconazole – CaCi-2 strain, Alamar Blue, dry powder, set 4, dose response (AID 488943); format: functional, organism-based
Candida albicans [19] = test: fluconazole-resistant Candida strain growth inhibitors – CaCi-8 strain, dry powder, set 4, dose response (AID 488950); format: functional, organism-based
HEK293 [20] = test: membrane integrity loss in HEK cells – cell-based, fluorescence, cytotoxicity control for IDE activator project, dose response (AID 588440); format: functional; conditions: Homo sapiens;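 note: cytotoxicity by LDH release measuring loss of membrane integrity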
[21] = target: Opioid receptors; mu & delta (Homo sapiens, UniProt P41143+P35372); test: OPRM1-OPRD1 heterodimer agonist potency – cell-based, luminescence, dose response (AID 588407); format: functional
HEK293 [22] = test: optical interference in Abeta FP readout, dose response, artefact control for IDE activator project, biochemical, fluorescence polarization (AID 588442); format: functional, cell-based; conditions: Homo sapiens

**Q.** For `CC1CCCN(c2ncnc3c2cnn3-c2ccc(Cl)cc2)C1` (stereo not drawn), which AC50 [1] is on record?
**A.** > 52 µM (inactive)

**Q.** What about the AC50 [2] of the same compound?
**A.** 0.155 µM (active)

**Q.** What about the AC50 [3] of the same compound?
**A.** 1.34 µM (active)

**Q.** What about the AC50 [4] of the same compound?
**A.** > 52 µM (inactive)

**Q.** And the EC50 [5]?
**A.** < 0.16 µM (active)

**Q.** And the IC50 [6]?
**A.** > 80 µM (inactive)

**Q.** What about the AC50 [7] of the same compound?
**A.** < 0.068 µM (active)

**Q.** Which AC50 (HeLa) does the source give for `COc1ccc(COc2ccc3ccc(=O)oc3c2)cc1` here?
**A.** 93.8 µM (active)

**Q.** With `C=C1C(=O)O[C@@H]2C[C@@H](C)[C@@H]3C4OC4C(=O)[C@@]3(C)[C@@H](O)[C@H]12` (stereo partly drawn) as the compound, how does the EC50 [8] read?
**A.** 0.644 µM (active)

**Q.** And the EC50 (H4)?
**A.** > 120 µM (not active)

**Q.** And the EC50 [9]?
**A.** 6.66 µM (inconclusive)

**Q.** And the IC50 (CHO)?
**A.** 2.43 µM (active)

**Q.** What about the EC50 [10] of the same compound?
**A.** 11.6 µM (not active)

**Q.** And the AC50 (INS1)?
**A.** 8.02 µM (active)

**Q.** And the EC50 [11]?
**A.** > 120 µM (not active)

**Q.** And the CC50 [12]?
**A.** 4.92 µM (active)

**Q.** And the EC50 [13]?
**A.** > 120 µM (not active)

**Q.** For `CCC(C)n1cnc2c(c1=O)c1nc3ccccc3nc1n2Cc1ccc(OC)cc1` (stereo not drawn), which EC50 [8] is on record?
**A.** 0.356 µM (active)

**Q.** And the EC50 [9]?
**A.** 47.7 µM (active)

**Q.** And the EC50 [14]?
**A.** 14.7 µM (active)

**Q.** And the EC50 [15]?
**A.** > 180 µM (inactive)

**Q.** And the EC50 [16]?
**A.** > 260 µM (inactive)

**Q.** Which AC50 (HeLa) does the source give for `CCc1ccc(C(=O)NC2CCCCC2)s1` here?
**A.** 87.6 µM (active)

**Q.** With `O=C(Nc1ccc(Cl)cc1)N1CCN(c2ccnc3cc(Cl)ccc23)CC1` as the compound, how does the AC50 (Candida albicans [17]) read?
**A.** 0.295 µM (active)

**Q.** What about the AC50 (Candida albicans [18]) of the same compound?
**A.** 1.16 µM (active)

**Q.** And the AC50 (Candida albicans [19])?
**A.** 1.56 µM (active)

**Q.** For `CC(C)CC(=O)N1CCN(c2ccnc3cc(Cl)ccc23)CC1`, which AC50 (Candida albicans [17]) is on record?
**A.** 12.7 µM (active)

**Q.** And the AC50 (Candida albicans [18])?
**A.** 5.54 µM (active)

**Q.** What about the AC50 (Candida albicans [19]) of the same compound?
**A.** 6.04 µM (active)

**Q.** Which IC50 (HEK293 [20]) does the source give for `Clc1ccc(C(c2ccc(Cl)cc2)[n+]2ccn(CC(OCc3ccc(Cl)cc3Cl)c3ccc(Cl)cc3Cl)c2)cc1.[Cl-]` (stereo not drawn) [CALMIDAZOLIUM CHLORIDE] here?
**A.** 2.01 µM (active)

**Q.** What about the EC50 [21] of the same compound?
**A.** > 3.426 µM

**Q.** What about the AC50 (INS1) of the same compound?
**A.** 2.56 µM (active)

**Q.** What about the EC50 (HEK293 [22]) of the same compound?
**A.** > 54.7 µM (inactive)
